Experimental data published in patent US12448389B2, “BRM targeting compounds and associated methods of use” (Prelude Therapeutics Incorporated, priority 2020, dated 2025).

Legend:
[1] = target: T1, SMARCA2-HiBiT (Homo sapiens, UniProt P51531); assay: SMARCA2 HiBiT degradation assay in HeLa cells; format: cell-based; conditions: 18 hours incubation; for DC50: read-out: HeLa_HiBit-SM2 DC50; for Dmax: HeLa, read-out: HeLa-HiBit-SM2 Dmax (%)
T1 construct: SMARCA2-HiBiT knock-in Hela monoclonal cell (CS302366); host or cells: HeLa monoclonal knock-in line (CRISPR HiBiT knock-in at the endogenous locus, heterozygous)
T1 sequence (P51531 whole entry): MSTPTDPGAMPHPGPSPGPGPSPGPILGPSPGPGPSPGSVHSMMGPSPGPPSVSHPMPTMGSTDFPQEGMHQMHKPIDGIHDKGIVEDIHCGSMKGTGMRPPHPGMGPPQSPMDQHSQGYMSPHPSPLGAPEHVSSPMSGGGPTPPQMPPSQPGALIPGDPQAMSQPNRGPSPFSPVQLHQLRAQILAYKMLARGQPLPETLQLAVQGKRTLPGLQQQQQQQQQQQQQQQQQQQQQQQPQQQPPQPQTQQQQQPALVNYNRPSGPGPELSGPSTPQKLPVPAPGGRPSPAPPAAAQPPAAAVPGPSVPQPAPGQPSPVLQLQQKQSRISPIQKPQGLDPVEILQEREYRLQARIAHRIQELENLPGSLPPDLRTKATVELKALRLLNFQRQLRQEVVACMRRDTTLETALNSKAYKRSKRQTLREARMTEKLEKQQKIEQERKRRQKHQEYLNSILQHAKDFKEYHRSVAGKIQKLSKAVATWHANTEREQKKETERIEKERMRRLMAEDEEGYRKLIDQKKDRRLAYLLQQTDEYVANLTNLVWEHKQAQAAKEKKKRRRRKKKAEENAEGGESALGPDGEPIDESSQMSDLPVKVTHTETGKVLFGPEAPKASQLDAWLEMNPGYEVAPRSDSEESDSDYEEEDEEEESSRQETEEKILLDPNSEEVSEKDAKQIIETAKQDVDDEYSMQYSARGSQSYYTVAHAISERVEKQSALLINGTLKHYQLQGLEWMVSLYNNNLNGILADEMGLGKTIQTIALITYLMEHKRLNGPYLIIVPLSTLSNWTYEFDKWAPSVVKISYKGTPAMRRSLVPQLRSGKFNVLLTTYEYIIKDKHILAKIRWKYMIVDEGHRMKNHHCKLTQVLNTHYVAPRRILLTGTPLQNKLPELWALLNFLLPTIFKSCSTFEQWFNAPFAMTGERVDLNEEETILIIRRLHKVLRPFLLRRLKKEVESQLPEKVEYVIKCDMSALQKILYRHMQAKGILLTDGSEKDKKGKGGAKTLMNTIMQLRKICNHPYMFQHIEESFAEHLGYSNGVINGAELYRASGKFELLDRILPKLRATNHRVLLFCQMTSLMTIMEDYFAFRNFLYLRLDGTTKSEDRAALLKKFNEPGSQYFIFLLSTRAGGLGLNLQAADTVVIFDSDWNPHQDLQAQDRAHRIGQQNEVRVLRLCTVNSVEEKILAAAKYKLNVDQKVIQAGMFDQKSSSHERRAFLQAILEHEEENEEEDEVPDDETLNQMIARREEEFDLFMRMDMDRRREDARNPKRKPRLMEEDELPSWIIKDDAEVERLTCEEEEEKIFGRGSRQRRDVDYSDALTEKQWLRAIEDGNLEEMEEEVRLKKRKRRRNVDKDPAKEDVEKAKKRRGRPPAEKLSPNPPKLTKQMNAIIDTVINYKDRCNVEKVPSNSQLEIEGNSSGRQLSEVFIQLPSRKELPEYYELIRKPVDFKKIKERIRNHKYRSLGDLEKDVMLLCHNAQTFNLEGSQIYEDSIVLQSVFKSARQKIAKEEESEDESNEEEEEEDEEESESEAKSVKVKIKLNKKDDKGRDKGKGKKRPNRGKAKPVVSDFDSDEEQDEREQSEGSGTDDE
Method in brief: (§1)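 HeLa monoclonal lines with heterozygous HiBiT knock-in were seeded at 2500 cells/well in EMEM with 10% FBS and treated with compound for 18 h at 37 °C. Remaining tagged protein was measured by Nano-Glo HiBiT lytic luminescence after 30–60 min at RT, and values came from curve fitting.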

[2] = target: T2, SMARCA4-HiBiT (Homo sapiens, UniProt P51532); assay: SMARCA4 HiBiT degradation assay in HeLa cells; format: cell-based; conditions: 18 hours incubation; for DC50: read-out: HeLa-HiBit-SM4 DC50; for Dmax: HeLa, read-out: HeLa-HiBit-SM4 Dmax (%)
T2 construct: SMARCA4-HiBiT knock-in Hela monoclonal cell (CS3023226); host or cells: HeLa monoclonal knock-in line (CRISPR HiBiT knock-in at the endogenous locus, heterozygous)
T2 sequence (P51532 whole entry): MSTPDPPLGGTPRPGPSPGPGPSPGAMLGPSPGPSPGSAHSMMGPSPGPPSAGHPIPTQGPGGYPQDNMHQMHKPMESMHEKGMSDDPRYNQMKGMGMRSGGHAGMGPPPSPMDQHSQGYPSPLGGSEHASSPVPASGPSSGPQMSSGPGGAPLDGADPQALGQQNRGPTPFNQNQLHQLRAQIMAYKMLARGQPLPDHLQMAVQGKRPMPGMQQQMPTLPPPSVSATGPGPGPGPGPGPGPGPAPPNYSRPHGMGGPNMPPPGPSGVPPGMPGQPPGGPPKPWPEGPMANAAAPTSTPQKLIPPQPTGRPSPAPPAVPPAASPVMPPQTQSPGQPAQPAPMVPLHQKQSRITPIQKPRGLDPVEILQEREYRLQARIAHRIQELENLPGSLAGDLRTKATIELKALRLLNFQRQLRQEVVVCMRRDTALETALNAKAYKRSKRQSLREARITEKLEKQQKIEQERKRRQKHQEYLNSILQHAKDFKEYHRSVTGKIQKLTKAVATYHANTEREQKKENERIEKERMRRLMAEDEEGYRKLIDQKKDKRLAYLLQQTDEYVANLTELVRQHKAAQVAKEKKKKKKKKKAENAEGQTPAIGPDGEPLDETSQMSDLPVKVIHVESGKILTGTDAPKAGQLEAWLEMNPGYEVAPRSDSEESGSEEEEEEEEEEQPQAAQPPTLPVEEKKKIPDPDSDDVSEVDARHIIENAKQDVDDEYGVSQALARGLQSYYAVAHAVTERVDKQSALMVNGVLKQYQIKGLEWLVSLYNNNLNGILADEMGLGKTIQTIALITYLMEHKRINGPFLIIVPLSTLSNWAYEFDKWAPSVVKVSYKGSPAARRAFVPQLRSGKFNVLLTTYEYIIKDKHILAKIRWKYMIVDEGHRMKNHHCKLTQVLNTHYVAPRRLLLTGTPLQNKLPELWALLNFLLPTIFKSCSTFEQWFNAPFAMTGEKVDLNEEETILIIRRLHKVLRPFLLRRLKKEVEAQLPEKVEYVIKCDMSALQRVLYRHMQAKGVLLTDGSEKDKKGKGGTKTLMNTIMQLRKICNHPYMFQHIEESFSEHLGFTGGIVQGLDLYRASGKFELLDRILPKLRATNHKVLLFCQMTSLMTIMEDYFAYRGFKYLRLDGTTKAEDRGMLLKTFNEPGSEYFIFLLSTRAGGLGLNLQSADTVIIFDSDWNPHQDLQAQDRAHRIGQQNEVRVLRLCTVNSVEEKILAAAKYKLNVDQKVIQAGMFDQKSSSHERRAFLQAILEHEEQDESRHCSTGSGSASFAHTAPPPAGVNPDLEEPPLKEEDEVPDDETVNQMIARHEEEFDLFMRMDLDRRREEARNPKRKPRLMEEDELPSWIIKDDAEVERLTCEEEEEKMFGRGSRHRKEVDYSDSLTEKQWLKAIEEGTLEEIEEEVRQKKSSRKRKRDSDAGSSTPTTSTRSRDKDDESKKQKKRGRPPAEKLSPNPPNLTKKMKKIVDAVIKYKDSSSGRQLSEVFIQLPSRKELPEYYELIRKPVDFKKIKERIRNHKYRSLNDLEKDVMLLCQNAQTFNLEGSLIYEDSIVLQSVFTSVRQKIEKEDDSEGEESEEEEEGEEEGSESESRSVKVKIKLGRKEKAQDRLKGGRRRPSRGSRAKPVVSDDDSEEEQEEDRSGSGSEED
Method in brief: as §1

DC50 [1] [µM] | Dmax [1] [%] | DC50 [2] [µM] | Dmax [2] [%] | HeLa-HiBit-SM2 Dmax (%) [1] | HeLa-HiBit-SM4 Dmax (%) [2] | SMILES
< 0.01 | 75 to 85 | < 0.01 | 75 to 85 | – | – | O=C1CCC(N2C(=O)c3ccc(N4CCC(CNC56CCC(C(=O)N7CCN8c9cc(-c%10ccccc%10O)nnc9NC[C@H]8C7)(CC5)CC6)CC4)cc3C2=O)C(=O)N1 (stereo partly drawn) [Example 81, 2-(2,6-dioxopiperidin-3-yl)-5-(4-(((4-((S)-2-(2-hydroxyphenyl)-6,6a,7,8,9,10-hexahydro-5H-pyrazino[1′,2′:4,5]pyrazino[2,3-c]pyridazine-8-carbonyl)bicyclo[2.2.2]octan-1-yl)amino)methyl)piperidin-1-yl)isoindoline-1dione]
< 0.01 | 75 to 85 | 0.01 to 0.1 | 50 to 75 | – | – | O=C1CCC(N2C(=O)c3ccc(N4CC[C@@H]5CN(C6CCC(C(=O)N7CCN8c9cc(-c%10ccccc%10O)nnc9NC[C@H]8C7)CC6)C[C@H]5C4)cc3C2=O)C(=O)N1 (stereo partly drawn) [Example 97, 2-(2,6-dioxopiperidin-3-yl)-5-((3aS,7aS)-2-(4-((S)-2-(2-hydroxyphenyl)-6,6a,7,8,9,10-hexahydro-5H-pyrazino[1′,2′:4,5]pyrazino[2,3-c]pyridazine-8-carbonyl)cyclohexyl)octahydro-5H-pyrrolo[3,4-c]pyridin-5-yl) isoindoline-1,3-dione]
< 0.01 | – | < 0.01 | – | A (A=Dmax>85%) | B (B=75%<Dmax<=85%) | O=C1CCC(N2C(=O)c3ccc(N4CC[C@H](CN5CCC(C(=O)N6CCN7c8cc(-c9cc(F)ccc9O)nnc8NC[C@H]7C6)CC5)[C@@H](F)C4)cc3C2=O)C(=O)N1 (stereo partly drawn) [Example 280, 2-(2,6-dioxopiperidin-3-yl)-5-((3R,4R)-3-fluoro-4-((4-((S)-2-(5-fluoro-2-hydroxyphenyl)-6,6a,7,8,9,10-hexahydro-5H-pyrazino[1′,2′:4,5]pyrazino[2,3-c]pyridazine-8-carbonyl)piperidin-1-yl)methyl)piperidin-1-yl)isoindoline-1,3-dione]
< 0.01 | > 85 | < 0.01 | 75 to 85 | – | – | O=C1CCC(N2C(=O)c3cccc(N4CCC(CN5CCC(CN6CCN7c8cc(-c9ccccc9O)nnc8NC[C@H]7C6)CC5)CC4)c3C2=O)C(=O)N1 (stereo partly drawn) [Example 127, 2-(2,6-dioxopiperidin-3-yl)-4-(4-((4-(((S)-2-(2-hydroxyphenyl)-5,6,6a,7,9,10-hexahydro-8H-pyrazino[1′,2′:4,5]pyrazino[2,3-c]pyridazin-8-yl)methyl)piperidin-1-yl)methyl)piperidin-1-yl) isoindoline-1,3-dione]
< 0.01 | 75 to 85 | < 0.01 | 50 to 75 | – | – | O=C1CCC(N2C(=O)c3ccc(N4CCC(NC56CC(CN7CCN8c9cc(-c%10ccccc%10O)nnc9NC[C@H]8C7)(C5)C6)CC4)cc3C2=O)C(=O)N1 (stereo partly drawn) [Example 135, 2-(2,6-dioxopiperidin-3-yl)-5-(4-((3-(((S)-2-(2-hydroxyphenyl)-5,6,6a,7,9,10-hexahydro-8H-pyrazino[1′,2′:4,5]pyrazino[2,3-c]pyridazin-8-yl)methyl)bicyclo[1.1.1]pentan-1-yl)amino)piperidin-1-yl)isoindoline-1,3-dione]
< 0.01 | ≤ 50 | 0.01 to 0.1 | ≤ 50 | – | – | O=C1CCC(N2C(=O)c3cc(F)c(N4CCN(CC5CCN(C(=O)N6CCN7c8cc(-c9ccccc9O)nnc8NC[C@H]7C6)CC5)CC4)cc3C2=O)C(=O)N1 (stereo partly drawn) [Example 263, 2-(2,6-dioxopiperidin-3-yl)-5-fluoro-6-(4-((1-((S)-2-(2-hydroxyphenyl)-6,6a,7,8,9,10-hexahydro-5H-pyrazino[1′,2′:4,5]pyrazino[2,3-c]pyridazine-8-carbonyl)piperidin-4-yl)methyl)piperazin-1-yl)isoindoline-1,3-dione]
< 0.01 | > 85 | 0.01 to 0.1 | 75 to 85 | – | – | O=C1CCC(N2Cc3ccc(N4CCN(CCCN5CCC(CN6CCN7c8cc(-c9ccccc9O)nnc8NC[C@H]7C6)CC5)CC4)cc3C2=O)C(=O)N1 (stereo partly drawn) [Example 121, 3-(6-(4-(3-(4-(((S)-2-(2-hydroxyphenyl)-5,6,6a,7,9,10-hexahydro-8H-pyrazino[1′,2′:4,5]pyrazino[2,3-c]pyridazin-8-yl)methyl)piperidin-1-yl)propyl)piperazin-1-yl)-1-oxoisoindolin-2-yl)piperidine-2,6-dione]
< 0.01 | – | < 0.01 | – | A (A=Dmax>85%) | C (C=50%<Dmax<=75%) | CC1CN(c2ccc3c(c2)C(=O)N(C2CCC(=O)NC2=O)C3=O)CCC1CN1C[C@@H]2[C@H](C1)[C@H]2CN1CCN2c3cc(-c4ccccc4O)nnc3NC[C@H]2C1 (stereo partly drawn) [Example 198, 2-(2,6-dioxopiperidin-3-yl)-5-(4-(((1R,5S,6r)-6-(((S)-2-(2-hydroxyphenyl)-5,6,6a,7,9,10-hexahydro-8H-pyrazino[1′,2′:4,5]pyrazino[2,3-c]pyridazin-8-yl)methyl)-3-azabicyclo[3.1.0]hexan-3-yl)methyl)-3-methylpiperidin-1-yl)isoindoline-1,3-dione]
< 0.01 | 50 to 75 | < 0.01 | 50 to 75 | – | – | O=C1CCC(N2C(=O)c3ccc(CN4CCC(CN5CCC(CN6CCN7c8cc(-c9ccccc9O)nnc8NC[C@H]7C6)CC5)CC4)cc3C2=O)C(=O)N1 (stereo partly drawn) [Example 187, 2-(2,6-dioxopiperidin-3-yl)-5-[[4-[[4-[[(10S)-4-(2-hydroxyphenyl)-1,5,6,8,12-pentazatricyclo[8.4.0.02,7]tetradeca-2,4,6-trien-12-yl]methyl]piperidin-1-yl]methyl]piperidin-1-yl]methyl]isoindole-1,3-dione]
< 0.01 | 75 to 85 | < 0.01 | 75 to 85 | – | – | CN(CCNc1ccc2c(c1)C(=O)N(C1CCC(=O)NC1=O)C2=O)C1CCC(N2CCN3c4cc(-c5ccccc5O)nnc4NC[C@H]3C2)CC1 (stereo partly drawn) [Example 220, 2-(2,6-dioxopiperidin-3-yl)-5-((2-((4-((S)-2-(2-hydroxyphenyl)-5,6,6a,7,9,10-hexahydro-8H-pyrazino[1′,2′:4,5]pyrazino[2,3-c]pyridazin-8-yl)cyclohexyl)(methyl)amino)ethyl)amino) isoindoline-1,3-dione]
< 0.01 | > 85 | < 0.01 | 75 to 85 | – | – | O=C1CCC(N2C(=O)c3ccc(N4CC5(CC(N6C[C@@H]7[C@@H](CN8CCN9c%10cc(-c%11ccccc%11O)nnc%10NC[C@H]9C8)[C@@H]7C6)C5)C4)cc3C2=O)C(=O)N1 (stereo partly drawn) [Example 259, 2-(2,6-dioxopiperidin-3-yl)-5-(6-((1R,5S,6s)-6-(((S)-2-(2-hydroxyphenyl)-5,6,6a,7,9,10-hexahydro-8H-pyrazino[1′,2′:4,5]pyrazino[2,3-c]pyridazin-8-yl)methyl)-3-azabicyclo[3.1,0]hexan-3-yl)-2-azaspiro[3.3]heptan-2-yl)isoindoline-1,3-dione]
< 0.01 | 75 to 85 | < 0.01 | 50 to 75 | – | – | O=C1CCC(N2C(=O)c3ccc(N4CCC(CN5CC6CC6(CN6CCN7c8cc(-c9ccccc9O)nnc8NC[C@H]7C6)C5)CC4)cc3C2=O)C(=O)N1 (stereo partly drawn) [Example 172, 2-(2,6-dioxopiperidin-3-yl)-5-[4-[[1-[[(10S)-4-(2-hydroxyphenyl)-1,5,6,8,12-pentazatricyclo[8.4.0.02,7]tetradeca-2,4,6-trien-12-yl]methyl]-3-azabicyclo[3.1.0]hexan-3-yl]methyl]piperidin-1-yl]isoindole-1,3-dione]
< 0.01 | 50 to 75 | 0.01 to 0.1 | 50 to 75 | – | – | O=C1CCC(N2C(=O)c3ccc(N4CCC(N5C[C@@H]6[C@@H](CN7CCN8c9cc(-c%10ccccc%10O)nnc9NC[C@H]8C7)[C@@H]6C5)CC4)cc3C2=O)C(=O)N1 (stereo partly drawn) [Example 90, 2-(2,6-dioxopiperidin-3-yl)-5-(4-((1R,5S,6s)-6-(((S)-2-(2-hydroxyphenyl)-5,6,6a,7,9,10-hexahydro-8H-pyrazino[1′,2′:4,5]pyrazino[2,3-c]pyridazin-8-yl)methyl)-3-azabicyclo[3.1.0]hexan-3-yl)piperidin-1-yl)isoindoline-1,3-dione]
< 0.01 | > 85 | 0.01 to 0.1 | 75 to 85 | – | – | CC1CN(CC2CCN(C(=O)N3CCN4c5cc(-c6ccccc6O)nnc5NC[C@H]4C3)CC2)CCN1c1ccc2c(c1)C(=O)N(C1CCC(=O)NC1=O)C2=O (stereo partly drawn) [Example 272, 2-(2,6-dioxopiperidin-3-yl)-5-(4-((1-((S)-2-(2-hydroxyphenyl)-6,6a,7,8,9,10-hexahydro-5H-pyrazino[1′,2′:4,5]pyrazino[2,3-c]pyridazine-8-carbonyl)piperidin-4-yl)methyl)-2-methylpiperazin-1-yl)isoindoline-1,3-dione]
< 0.01 | > 85 | < 0.01 | 75 to 85 | – | – | O=C1CCC(N2C(=O)c3ccc(N4CCN(CC5CCC(CN6CCN7c8cc(-c9ccccc9O)nnc8NC[C@H]7C6)CC5)CC4)cc3C2=O)C(=O)N1 (stereo partly drawn) [Example 168, 2-(2,6-dioxopiperidin-3-yl)-5-(4-((4-(((S)-2-(2-hydroxyphenyl)-5,6,6a,7,9,10-hexahydro-8H-pyrazino[1′,2′:4,5]pyrazino[2,3-c]pyridazin-8-yl)methyl)cyclohexyl)methyl)piperazin-1-yl)isoindoline-1,3-dione]
